Assay results: the Deep4Chem optical property database
Each block holds one compound with its values, some of them ahead of it.

Experiment: solvent given as SMILES

absorption maximum (in CC#N): 506 nm
absorption maximum (in ClCCl): 506 nm
SMILES: COc1ccc2nc(/N=N/c3ccc(N(C)C)cc3)sc2c1

absorption maximum (in C1CCCCC1): 470 nm
SMILES: C[Si](C)(C)C#CC#Cc1ccc2c3cccc4cccc(c5cccc1c52)c43

absorption maximum (in ClCCl): 538 nm
SMILES: Cc1cc(C)c(C2=C3C=C(/C=C/C(=O)OC(C)(C)C)C=[N+]3[B-](F)(F)n3cccc32)c(C)c1

absorption maximum (in C1CCOC1): 338 nm
absorption maximum (in CC#N): 338 nm
absorption maximum (in CN(C)C=O): 336 nm
absorption maximum (in ClCCl): 336 nm
absorption maximum (in c1ccccc1): 338 nm
SMILES: CCN1c2ccc(-c3cc(-c4ccccc4)[nH]n3)cc2Sc2cc(-c3cc(-c4ccccc4)[nH]n3)ccc21

absorption maximum (in C1CCCCC1): 446 nm
SMILES: CCCCc1cc2cccc[n+]2[b-]2c(-c3cccc4[b-]3[n+]3ccccc3cc4CCCC)cccc21

absorption maximum (in ClCCl): 430 nm
SMILES: C(=C\c1nc(/C=C/c2ccc(N(c3ccccc3)c3ccccc3)cc2)cc(/C=C/c2ccc(N(c3ccccc3)c3ccccc3)cc2)n1)/c1ccccc1

absorption maximum (in CS(C)=O): 498 nm
absorption maximum (in ClCCl): 494 nm
SMILES: CCN(CC)c1ccc2c(c1)oc(=O)c1c(=O)oc3cc([N+](=O)[O-])ccc3c12

absorption maximum (in ClCCl): 349 nm
SMILES: CC(C)(C)c1ccc2c(c1)c1cc(C(C)(C)C)ccc1n2-c1ccc(N(c2ccc(-c3ccc(N(c4ccc(-n5c6ccc(C(C)(C)C)cc6c6cc(C(C)(C)C)ccc65)cc4)c4ccc(-n5c6ccc(C(C)(C)C)cc6c6cc(C(C)(C)C)ccc65)cc4)cc3)cc2)c2ccc(-n3c4ccc(C(C)(C)C)cc4c4cc(C(C)(C)C)ccc43)cc2)cc1

absorption maximum (in CCO): 345 nm
absorption maximum (in ClC(Cl)Cl): 393 nm
SMILES: CCOc1ccc2c(-c3nc(-c4ccccc4F)no3)cc(=O)oc2c1

absorption maximum (in CS(C)=O): 786 nm
SMILES: CN(C)c1ccc(C2=[N+]3C(=Nc4c(-c5ccc(OCCCCS(=O)(=O)[O-])cc5)cc(-c5ccc(N(C)C)cc5)n4[B-]3(F)F)C(c3ccc(OCCCCS(=O)(=O)[O-])cc3)=C2)cc1

absorption maximum (in C1CCCCC1): 339 nm
absorption maximum (in C1CCOC1): 342 nm
absorption maximum (in C1COCCO1): 341 nm
absorption maximum (in CC#N): 334 nm
absorption maximum (in CC(C)(C)O): 345 nm
absorption maximum (in CC(C)O): 340 nm
absorption maximum (in CCCCCC): 339 nm
absorption maximum (in CCCCO): 340 nm
absorption maximum (in CCO): 340 nm
absorption maximum (in CCOC(C)=O): 340 nm
absorption maximum (in CN(C)C=O): 344 nm
absorption maximum (in CO): 341 nm
absorption maximum (in CS(C)=O): 346 nm
absorption maximum (in ClC(Cl)Cl): 337 nm
absorption maximum (in ClCCl): 335 nm
absorption maximum (in O): 342 nm
absorption maximum (in OCCO): 342 nm
SMILES: Cc1cc(O)c(C(C)C)cc1/N=C/c1ccc(O)cc1

absorption maximum (in O): 274 nm
SMILES: Nc1nc2c(ncn2[C@H]2C[C@H](O)[C@@H](CO)O2)c(=O)[nH]1

absorption maximum (in C1CCCCC1): 388 nm
absorption maximum (in CC#N): 392 nm
SMILES: CC(C)c1ccc(/C=C/c2nc3ccc(N(C)C)cc3s2)cc1

absorption maximum (in CC#N): 710 nm
absorption maximum (in ClCCl): 718 nm
SMILES: F[B-]1(F)n2c(-c3cccs3)cc(-c3ccccc3)c2N=C2C(c3ccccc3)=CC(c3cccs3)=[N+]21

absorption maximum (in CC#N): 376 nm
SMILES: CCOC(=O)c1c2c3c(cccc3c3cc4c(cc13)[Si](C)(C)O[Si]4(C)C)N(C)C2=O

The next lines start with the compound.

SMILES: CCCCCCCCC1(CCCCCCCC)c2cc3c(cc2-c2sc(-c4ccc(/C=C5\SC(=S)N(CC)C5=O)c5nsnc45)cc21)C(CCCCCCCC)(CCCCCCCC)c1cc(-c2ccc(/C=C4\SC(=S)N(CC)C4=O)c4nsnc24)sc1-3
absorption maximum (in ClC(Cl)Cl): 652 nm

SMILES: CC(C)(C)c1ccc2c(c1)sc1[n+]2[B-](F)(F)n2c(c3cccc4c(Br)ccc2c43)=N1
absorption maximum (in C1CCOC1): 494 nm
absorption maximum (in CC#N): 488 nm
absorption maximum (in CCCCCC): 490 nm
absorption maximum (in Cc1ccccc1): 498 nm
absorption maximum (in ClCCl): 463 nm

SMILES: F[B-]1(F)OC(c2cccc(Br)c2)=Cc2c3ccccc3cc[n+]21
absorption maximum (in ClC(Cl)Cl): 399.5 nm

SMILES: CCCC1(CCC)c2cc(-c3ccc(OC)cc3)ccc2-c2ccc(-c3ccc4c(c3)C(CCC)(CCC)c3cc(-c5ccc(OC)cc5)ccc3-4)cc21
absorption maximum (in C1CCCCC1): 350 nm

SMILES: c1ccn(-c2ccc(-c3cc(-c4ccc(-n5cccc5)cc4)cc(-c4ccc(-n5cccc5)cc4)c3)cc2)c1
absorption maximum (in ClCCl): 388.72 nm

SMILES: C[C@@]12SC(Cl)=CC1=c1nc(-c3ccc(Cl)cc3)[nH]c1=C1C=C(Cl)S[C@]12C
absorption maximum (in CC#N): 327 nm

SMILES: Cc1cc2nc3[nH]c(=O)n(C)c(=O)c3nc2cc1C
absorption maximum (in CC#N): 379 nm

SMILES: COc1ccccc1-c1nc2c3ccccc3c3ccccc3c2n1-c1ccc(C)cc1
absorption maximum (in Cc1ccccc1): 359 nm

SMILES: CC[N+]1(CC)CN2C(=N1)C(C(=O)O)=Cc1cc(OC)ccc12
absorption maximum (in O): 394 nm

SMILES: c1cc2c3c(c1)-c1ccc4c5c(ccc(c15)B3c1ccc3c5c(ccc-2c15)CC3)CC4
absorption maximum (in Cc1ccccc1): 495 nm

SMILES: Cc1ccc(C2=C3C=CC(C#Cc4ccccc4)=[N+]3[B-](F)(F)n3c(Cl)ccc32)cc1
absorption maximum (in C1CCCCC1): 564 nm
absorption maximum (in C1CCOC1): 560 nm
absorption maximum (in C1COCCO1): 562 nm
absorption maximum (in CCOC(C)=O): 558 nm
absorption maximum (in CO): 556 nm
absorption maximum (in Cc1ccccc1): 566 nm
absorption maximum (in ClC(Cl)Cl): 564 nm

SMILES: CCc1c(C)[nH]c(C2=[N+]3C(=Cc4c(C)c(CC)c(C)n4[B-]3(F)F)c3ccccc32)c1C
absorption maximum (in C1CCOC1): 629 nm
absorption maximum (in CC#N): 620 nm
absorption maximum (in CCCCCC): 629 nm
absorption maximum (in CO): 623 nm
absorption maximum (in Cc1ccccc1): 636 nm
absorption maximum (in ClCCl): 629 nm

SMILES: CN(C)c1ccc(N2c3sc4ccccc4c3Sc3sc4ccccc4c32)cc1
absorption maximum (in ClCCl): 319 nm

SMILES: CC(C)[Si](C#Cc1c2cc3ccccc3cc2c(C#C[Si](C(C)C)(C(C)C)C(C)C)c2cc3ccccc3cc12)(C(C)C)C(C)C
absorption maximum (in ClCCl): 643 nm

SMILES: CCCCCCCCN1C(=O)c2ccc3c4c(-c5ccc(N(c6ccccc6)c6ccccc6)cc5)cc5c6c(cc(-c7ccc(N(c8ccccc8)c8ccccc8)cc7)c(c7ccc(c2c37)C1=O)c64)C(=O)N(CCCCCCCC)C5=O
absorption maximum (in ClC(Cl)Cl): 606 nm

SMILES: CCOC(=O)c1c(-c2cc3ccc(OC)cc3oc2=O)nn(-c2cccc(C)c2)c1C(=O)OCC
absorption maximum (in ClCCl): 337 nm

SMILES: COc1cc2c(cc1/C=C/C1=CC(=C(C#N)C#N)CC(C)(C)C1)c1ccccc1n2C
absorption maximum (in C1CCOC1): 475 nm
absorption maximum (in CC#N): 477 nm
absorption maximum (in CCO): 479 nm
absorption maximum (in CCOC(C)=O): 462 nm
absorption maximum (in CN(C)C=O): 484 nm
absorption maximum (in CS(C)=O): 489 nm
absorption maximum (in Cc1ccccc1): 468 nm
absorption maximum (in ClC(Cl)Cl): 485 nm
absorption maximum (in ClCCl): 478 nm

SMILES: C(=C/c1ccc(N(c2ccccc2)c2ccccc2)cc1)/c1ccc(N(c2ccccc2)c2ccccc2)cc1
absorption maximum (in ClCCl): 370 nm

SMILES: c1ccc(C2=C(c3ccccc3)c3cccc4c5c(cc(c34)O2)=NC2CCCCC2N=5)cc1 (centres undefined)
absorption maximum (in ClCCl): 431 nm

SMILES: COc1cc(/C=C2/SC(=O)NC2=O)ccc1O
absorption maximum (in C1CCCCC1): 348 nm
absorption maximum (in C1COCCO1): 358 nm
absorption maximum (in CC#N): 354 nm
absorption maximum (in CN(C)C=O): 340 nm
absorption maximum (in CO): 355 nm
absorption maximum (in O): 355 nm
absorption maximum (in OCC(O)CO): 367 nm
absorption maximum (in OCCO): 361 nm

SMILES: Cc1cnc(NC(=O)C2=C([O-])c3ccccc3S(=O)(=O)N2C)s1
absorption maximum (in CC#N): 371 nm
absorption maximum (in CCCCO): 369 nm
absorption maximum (in CCCO): 368 nm
absorption maximum (in CCO): 366 nm
absorption maximum (in CO): 364 nm

SMILES: CN(C)c1ccc(/C=C/c2cc[n+](C)c3ccccc23)cc1
absorption maximum (in CC(C)=O): 540 nm
absorption maximum (in ClCCl): 581 nm
absorption maximum (in O): 510 nm

SMILES: CCCCC(CC)Cn1c2cc(C#N)ccc2c2cc(-c3ccc(N(c4ccccc4)c4ccccc4)cc3)c(C#N)cc21 (centres undefined)
absorption maximum (in ClCCl): 398 nm
